The results in this text go back to article PMC10384782, “New Phenolic Lipids from the Leaves of Clausena harmandiana Inhibit SARS-CoV-2 Entry into Host Cells” (Molecules, 2023).

Series [1] relates to HCoV-229E. Nature of the series: Time-of-drug addition assay in HCoV-229E-Luc-infected Huh7 cells. Type of series: cell-based. The note with it: 2 and 3 at 0.2 µM; for inhibition of infection when added after virus inoculation (replication step): Remdesivir 0.1 µM, luciferase activity; for inhibition of infection when present during the virus entry step: Q3G 25 µM, co-added with virus for 1 h.

Series [2] deals with HCoV-229E. The experiment in a line: HCoV-229E-Luc infection inhibition assay (fractions and pure compounds) in Huh7 cells. Type of series: cell-based. The note with it: for IC50: Human coronavirus 229E, Huh-7, 12 h, read-out: IC50 (concentration inhibited infection by 50%).
Series [3] deals with SARS-CoV-2. Nature of the series: microbe, parasite or virus in culture. The note with it: for selectivity index (SI): SARS-CoV-2, Vero-E6 cells; for IC50: Severe acute respiratory syndrome coronavirus 2, Vero C1008, 48 h, read-out: IC50 against SARS-CoV-2. Type of series: cell-based.
The nature of series [4]: in vitro. The note with it: human.
A short description of series [5]: in vitro. The note with it: African green monkey.
Series [6] relates to HCoV-229E. The experiment in a line: microbe, parasite or virus in culture. Type of series: cell-based. The note with it: Human coronavirus 229E, Huh-7; read-out: inhibition of infection after pre-incubation of virus particles.
Series [7] concerns SARS-CoV-2. Type of series: cell-based.

“Also recorded” adds a separate entry of the source.

`CCC(CC)COC(=O)[C@H](C)N[P@](=O)(OC[C@H]1O[C@@](C#N)(c2ccc3c(N)ncnn23)[C@H](O)[C@@H]1O)Oc1ccccc1` [Remdesivir, reference compound]: the “inhibition of infection when added after virus inoculation (replication step)” value (from here on “inhibition of infection when added”) in series [1] was “strongly inhibited viral replication”.

As for `CCCC=CCCCCCCCCCCCC(O)Cc1cc(O)ccc1O` (stereo not drawn) [Compound 1, (2′. R)-2-[(14′Z)-2′-Hydroxyoctadec-14′-en-1′-yl]benzene-1,4-diol], the “antiviral activity against HCoV-229E (in words)” value in series [2] (non-cytotoxic doses (up to 0.25 µM), Huh7 cells) is “no antiviral effect; also recorded: no antiviral activity”. Further, the “antiviral activity against SARS-CoV-2 (in words)” value in series [3] (Vero-E6 cells, non-cytotoxic concentrations) is listed as “no antiviral activity”. In addition, the CC50 in series [4] is 1300 ± 100 nM; in series [5], 1500 ± 200 nM.

As to `O=c1c(O[C@@H]2O[C@H](CO)[C@@H](O)[C@H](O)[C@H]2O)c(-c2ccc(O)c(O)c2)oc2cc(O)cc(O)c12` [Compound Q3G, Isoquercitrin, reference compound], the “inhibition of infection when present during the virus entry step” value in series [1] is given as “strong inhibition of infection”.

Turning to `CCCCCCCCCCCCCCCC[C@@H](O)Cc1cc(O)ccc1O` [Compound 3, (2′R)-(2-(2-hydroxyoctadecyl)benzene-1,4-diol)], in series [2], the “SI, selectivity index (CC50/IC50)” value is given as 16 and the IC50 is 50 ± 40 nM. Moreover, the “effect on HCoV-229E-Luc infection at 0.01 µM without pre-incubation” value in series [2] (Huh7 cells) is reported as “does not inhibit”. In addition, in series [3], the “selectivity index (SI)” value is 18 and the IC50 turned out to be 50 nM. For the same compound, in series [1], the “inhibition of infection when present during the virus entry step” value is “strong inhibition of infection” and the “inhibition of infection when added” value was “no inhibition of infection”. The inhibition at 0.2 µM in series [6] is no more than 80%. In series [4], this compound yielded a CC50 of 800 ± 100 nM. Also, the CC50 in series [5] was found to be 900 ± 200 nM.

Regarding `CCCCC=CCCCCCCCCCCCC(O)Cc1cc(O)ccc1O` (stereo not drawn) [Compound 2, (2′R)-2-[(14′Z)-2′-hydroxynonadec-14′-en-1′-yl]benzene-1,4-diol], in series [2], the “SI, selectivity index (CC50/IC50)” value is listed as 5 and the IC50 is 100 ± 30 nM. In series [2] (Huh7 cells), the “effect on HCoV-229E-Luc infection at 0.01 µM without pre-incubation” value was “does not inhibit”. In series [3], the “selectivity index (SI)” value was 2.5 and the IC50 stood at 200 nM. Also, in series [1], the “inhibition of infection when present during the virus entry step” value is on record as “strong inhibition of infection” and the “inhibition of infection when added” value is reported as “no inhibition of infection”. Also, in series [6], the inhibition at 0.2 µM is no more than 60%. Moreover, in series [7], the “decrease of viral progeny (residual infectivity)” value is given as “up to 1 log”. For the same compound, in series [4], the CC50 was determined as 500 ± 50 nM. In addition, the CC50 in series [5] stood at 500 ± 80 nM.
